How the values were obtained:
OV-MZ-6 cells = assay: Cell adhesion in the presence of ligand, OV-MZ-6 cells; assay type: cell-based; details: 1 μM, 48 h
Experimental: (§1) Figure 10 (A) Effect of integrin ligands on cancer cell migration. […] Microscopical measurements of wound gaps were taken directly after setting the wound scratch and then after 9, 24, 48, and 72 h, respectively. Wound scratch assays were repeated at least three times. The extent of wound gap closure [%]/cell coverage was calculated by a python script utilizing Canny’s Edge Detection algorithm as described under Materials and summarized in the corresponding histograms (see also Scheme S5 in the Supporting Information). (B) Adhesion of M21, OV-MZ-6, and HN cells in the presence of the respective integrin targeting ligand at low (1 nM) and high (1 μM) concentrations. […] Depicted are typical microscopical images of the respective cell monolayers.

HN cells (αvβ6+) = assay: Time-dependent cellular uptake of Cy5.5-labeled ligands, HN cells; assay type: cell-based; details: Cy5.5-labeled ligands, 1 μM
Description: For intracellular drug delivery, integrin ligands designed as drug-conjugated vehicles have to be easily and selectively internalized by tumor cells (over)expressing the respective targeted integrin subtype. […] It should be noted here that HN, OV-MZ-6, and RKO cells also express low αvβ3 expression levels.
Figure 7 Cellular uptake of Cy5.5-labeled integrin ligands. […] Nuclei were costained with Hoechst 33342 (blue signal) and cell membranes with CellMask Green (green signal). Merge of stains (yellow signal) indicated colocalization of ligands at the cell membrane. Scale bar: 50 μm.
Microchamber cell culture slides were coated with fibronectin (2 μg/mL), followed by cell seeding at a density of 50,000 cells/well. After 24 h of cultivation, cells were treated with integrin ligands L1-Cy5.5 to L5-Cy5.5 (1 μM in 0.01% (w/v) CaCl2 and 0.1% (w/v) BSA in PBS; 250 μL/well) for 3, 30, 60, or 300 min at 37 °C. The cells were washed in PBS/0.01% (w/v) CaCl2 (6 × 800 μL) and the fluorescence signal intensity recorded using the LSM 700 microscope (Zeiss, Jena, Germany). CellMask Green Plasma Membrane Stain was used to stain the cell membrane; nuclei were stained with Hoechst 33342.

[1] = system: FAK, p-FAK, p44/42erk-1/2 in αvβ6+ HN cells; assay: Western blot of FAK and p44/42erk-1/2 expression and activation, HN cells; assay type: cell-based
Experimental: Since agonistic ligand performance requires integrin activation and signaling, by Western blot analysis, we studied whether the different ligands alter the expression levels and activation states of FAK and p44/42^(erk-1/2). For this, the respective target integrin-expressing tumor cell types were incubated with the corresponding subtype-selective ligand at a concentration of 1 μM for 24 h (Figure 8). […] Signal intensities of FAK and p44/42^(erk-1/2) expression and activation (p-FAK and p-p44/42^(erk-1/2)) on Western blots were evaluated by densitometry. Data are depicted as GAPDH-normalized fluorescence signal intensities as n-fold, by setting values obtained for the respective untreated cells to “1”. […] MAPK p44/42^(erk-1/2) expression was approximately 2.2-fold augmented, p44/42^(erk-1/2) by approximately 2.5-fold. It also raised activation of p-FAK and p-p44/42^(erk-1/2) by approximately 2.2-fold and 3.1-fold, respectively, in α5β1+ OV-MZ-6 cells. […] Additionally, it raised FAK (approximately 1.7-fold) and p-p44/42^(erk-1/2) (approximately 2.4-fold) in α5β1+ OV-MZ-6 cells.
Figure 8 Effects of ligands on cellular expression and activation of integrin-related signaling molecules FAK and p44/42^(erk-1/2). […] Signal intensities for FAK and p-FAK, respectively, were evaluated by use of the Bio-Rad Imager Gel Doc XR+ and a ChemiDoc XRS+ Systems and the software Image Lab. Shown are typical representative Western blot images and the corresponding histograms depicting GAPDH-normalized signal intensities as n-fold by setting the values obtained for untreated cells to “1” (drawn as black line). For each cell line, cutouts of identical gels are depicted.
In order to capture early and transient changes in signaling activation following ligand treatment, we next reduced the observation periods to 5, 30, or 60 min and assessed FAK expression and activation. […] Depicted are typical Western blot images and the corresponding densitometrical evaluations of GAPDH-normalized signal intensities as n-fold, by setting that of the respective untreated cell type to “1” (Figure 9). […]

HN cells = assay: Cell adhesion in the presence of ligand, HN cells; assay type: cell-based; details: both concentrations (1 nM, 1 μM), 48 h
Experimental: as §1

human αvβ3-integrin = biological target: T1, human αvβ3-integrin (Homo sapiens, UniProt P05106+P06756); details: previously published values; cited from earlier work
T1 construct: purchased R&D 3050-AV-050

human αvβ6-integrin = biological target: T2, human αvβ6-integrin (Homo sapiens, UniProt P06756+P18564); details: previously published values; cited from earlier work
T2 construct: purchased R&D 3817-AV-050
T2 sequence (P06756 31-992 limits assumed): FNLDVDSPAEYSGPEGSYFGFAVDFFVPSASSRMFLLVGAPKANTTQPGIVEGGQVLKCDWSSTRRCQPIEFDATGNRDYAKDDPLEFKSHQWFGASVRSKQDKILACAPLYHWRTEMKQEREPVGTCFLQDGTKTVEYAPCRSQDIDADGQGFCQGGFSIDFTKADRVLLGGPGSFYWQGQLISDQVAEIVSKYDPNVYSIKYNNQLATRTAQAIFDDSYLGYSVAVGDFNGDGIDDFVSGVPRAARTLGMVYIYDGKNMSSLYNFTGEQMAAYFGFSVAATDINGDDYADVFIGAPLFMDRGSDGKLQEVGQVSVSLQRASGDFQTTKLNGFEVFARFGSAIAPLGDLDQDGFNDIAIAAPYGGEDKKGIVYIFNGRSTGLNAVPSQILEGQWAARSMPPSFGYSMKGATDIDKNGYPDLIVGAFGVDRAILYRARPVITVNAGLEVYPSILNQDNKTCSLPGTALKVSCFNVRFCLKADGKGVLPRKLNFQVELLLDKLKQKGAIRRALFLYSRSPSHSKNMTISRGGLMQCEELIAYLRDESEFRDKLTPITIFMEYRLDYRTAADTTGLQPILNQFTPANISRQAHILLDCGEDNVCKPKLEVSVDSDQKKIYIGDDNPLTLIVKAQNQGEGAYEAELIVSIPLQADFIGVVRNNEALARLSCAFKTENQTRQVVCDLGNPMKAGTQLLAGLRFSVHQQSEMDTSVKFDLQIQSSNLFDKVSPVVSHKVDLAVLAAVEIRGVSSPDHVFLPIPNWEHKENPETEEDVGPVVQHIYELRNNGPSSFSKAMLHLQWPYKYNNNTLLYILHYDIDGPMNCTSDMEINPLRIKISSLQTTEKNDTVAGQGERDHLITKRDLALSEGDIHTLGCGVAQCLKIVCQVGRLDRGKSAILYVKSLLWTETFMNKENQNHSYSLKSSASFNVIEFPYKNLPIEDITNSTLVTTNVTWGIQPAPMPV
T2 sequence (P18564 22-707 limits assumed): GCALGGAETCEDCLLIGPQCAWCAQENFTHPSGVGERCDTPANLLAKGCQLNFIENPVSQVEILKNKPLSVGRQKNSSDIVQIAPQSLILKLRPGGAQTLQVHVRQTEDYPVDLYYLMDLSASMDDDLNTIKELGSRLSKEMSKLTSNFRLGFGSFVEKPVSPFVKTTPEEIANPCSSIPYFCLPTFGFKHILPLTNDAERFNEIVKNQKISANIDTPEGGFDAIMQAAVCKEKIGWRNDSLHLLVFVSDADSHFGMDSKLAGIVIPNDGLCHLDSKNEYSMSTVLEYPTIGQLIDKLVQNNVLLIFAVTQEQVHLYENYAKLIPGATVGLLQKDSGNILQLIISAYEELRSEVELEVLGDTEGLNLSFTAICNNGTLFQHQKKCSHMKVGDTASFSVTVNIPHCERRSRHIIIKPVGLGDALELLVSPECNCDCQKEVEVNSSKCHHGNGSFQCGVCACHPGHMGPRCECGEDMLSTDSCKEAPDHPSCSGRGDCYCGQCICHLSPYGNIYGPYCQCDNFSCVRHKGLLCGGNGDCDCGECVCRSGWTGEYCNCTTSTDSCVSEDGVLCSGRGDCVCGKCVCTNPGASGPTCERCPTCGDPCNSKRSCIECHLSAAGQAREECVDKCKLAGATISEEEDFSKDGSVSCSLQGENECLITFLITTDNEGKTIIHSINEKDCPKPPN

T1 sequence (P06756 31-992 limits assumed): as the sequence (P06756 31-992 limits assumed) above
T1 sequence (P05106 27-718 limits assumed): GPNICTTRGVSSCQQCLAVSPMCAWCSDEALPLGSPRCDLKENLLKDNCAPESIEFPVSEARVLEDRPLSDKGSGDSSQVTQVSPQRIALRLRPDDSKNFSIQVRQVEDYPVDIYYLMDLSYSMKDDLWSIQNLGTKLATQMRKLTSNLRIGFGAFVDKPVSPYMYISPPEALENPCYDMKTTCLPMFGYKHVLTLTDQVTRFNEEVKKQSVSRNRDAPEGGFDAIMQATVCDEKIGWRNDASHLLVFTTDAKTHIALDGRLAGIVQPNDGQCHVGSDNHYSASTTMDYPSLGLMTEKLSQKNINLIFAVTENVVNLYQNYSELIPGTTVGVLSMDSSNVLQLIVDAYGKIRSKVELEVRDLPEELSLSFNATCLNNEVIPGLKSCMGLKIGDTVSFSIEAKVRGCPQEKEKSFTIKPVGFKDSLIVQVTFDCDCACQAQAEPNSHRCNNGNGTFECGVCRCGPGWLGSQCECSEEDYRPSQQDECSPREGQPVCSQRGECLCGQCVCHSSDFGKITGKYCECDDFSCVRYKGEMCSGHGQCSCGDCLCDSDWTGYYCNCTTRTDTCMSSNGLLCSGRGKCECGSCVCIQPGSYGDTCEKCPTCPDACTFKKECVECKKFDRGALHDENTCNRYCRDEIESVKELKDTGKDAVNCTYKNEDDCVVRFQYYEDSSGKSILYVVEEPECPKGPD

| Compound | Effect on cell adhesion / attachment (OV-MZ-6 cells) | Cellular uptake, comparison of αvβ6 ligands (HN cells (αvβ6+)) | Modulation of signaling molecules (FAK, p44/42erk-1/2) ([1]; 1 μM, 24 h, in either cell type) | p-FAK, elevated levels within 30 min ([1]; HN cells, 1 nM) | FAK expression versus untreated cells ([1]; HN cells, both concentrations (1 nM, 1 μM), within 60 min) | Adhesive phenotype (HN cells) | IC50 (human αvβ3-integrin) | IC50 (human αvβ6-integrin) |
| --- | --- | --- | --- | --- | --- | --- | --- | --- |
| C#CCCC(=O)NCCCOc1cc(C)c(C(=O)N[C@@H](CNC(=O)CNC(=O)c2cccc(NC(=N)N)c2)C(=O)O)c(C)c1 [L5, (S)-2-(2,6-Dimethyl-4-(3-(pent-4-ynamido)propoxy)benzamido)-3-(2-(3-guanidinobenzamido)acetamido)propanoic Acid] | performed as inhibitors of cell attachment |  |  |  |  |  |  |  |
| c(FRGDLAFp(NMe)K) [L3] |  | better cellular uptake than L4 | not effective in modulating signaling molecules | approximately five | slight increase | not changed | > 1000 nM | 0.28 ± 0.019 nM |

— publication PMC11874007, “Switching Roles—Exploring Concentration-Dependent Agonistic versus Antagonistic Behavior of Integrin Ligands” (Journal of Medicinal Chemistry, 2025)
